From patent publication US8354451B2, “Treatment of microbial infections with compounds that inhibit 4-hydroxyphenylpyruvate dioxygenase” (The UWM Research Foundation, Inc., priority 2009, dated 2013)
Read-outs that look alike come from different tables or passages of the source.

Key:
B. cenocepacia C5424 = assay type: cell-based, Burkholderia cenocepacia; settings: 24 h culture, OD597
Pseudomonas aeruginosa = assay: Murine model of systemic infection, intraperitoneal; settings: 1 mg/Kg NTBC daily

## O=C1CCCC(=O)C1C(=O)c1ccc(C(F)(F)F)cc1[N+](=O)[O-] [NTBC, 2-(2-nitro-4-trifluoromethylbenzoyl)-1,3-cyclohexanedione]
B. cenocepacia C5424; 10 μM NTBC
  pigment production relative to untreated C5424: 31.95±3.96%
B. cenocepacia C5424; 100 μM NTBC
  pigment production relative to untreated C5424: 26.89±0.59%
Pseudomonas aeruginosa
  time to return to normal growth (weight) after administration: ≤ 24 h
Pseudomonas aeruginosa; 3.2×10^8 CFU P. aeruginosa
  survival rate versus infected untreated mice: three-fold higher survival rate
